{"source": "patent US11590076B2", "about": "“Cryogel scaffold capable of controlling degree of degradation and soft bio-integrated device in which drug modulating immunosuppressive action in solid microenvironment is loaded in same scaffold” (Research & Business Foundation Sungkyunkwan University, priority 2017, dated 2023)", "key": {"BMDCs": {"test_system": "BMDCs", "test": "Activation of BMDCs using gemcitabine-treated 4T1 breast cancer cell line", "type": "cell-based, mouse", "conditions": "gemcitabine-treated breast cancer cell line versus control, FIG. 31D", "experimental": "(§1) In addition, the activation of BMDCs using a gemcitabine-treated 4T1 breast cancer cell line was confirmed. The 4T1 cells were cultured with 1 μg/mL gemcitabine in a 6-well plate at a density of 2×10^6 cells/well. The gemcitabine-induced apoptosis of the 4T1 breast cancer cells was assessed according to the protocol of the FITC Annexin V Apoptosis kit (BD Biosciences). After 24 hours, a supernatant was collected, and then incubated with BMDCs. A BMDC activation marker was analyzed using an Accuri™ flow cytometer. Antibodies used herein were FITC-anti-CD11c and APC-anti-CD80 (BD Pharmingen)."}, "[1]": {"test_system": "myeloid-derived-suppressor cells (MDSCs)", "test": "Gemcitabine-induced apoptosis of MDSCs (FITC Annexin V)", "type": "cell-based, mouse", "conditions": "various gemcitabine concentrations, FIG. 31B", "experimental": "Gemcitabine induces apoptosis of myeloid-derived-suppressor cells (MDSCs) in vitro. The spleen was extracted from a mouse harboring 4T1 tumors for 28 days, the extracted spleen was ground, and RBCs were removed therefrom using an RBC lysis buffer. The RBC-removed spleen cells were re-dispersed in a MACS buffer (PBS, 0.5% BSA, […]), MDSCs were isolated using an MDSC isolation kit (Miltenyi Biotec). The isolated myeloid-derived-suppressor cells were seeded in a 6-well plate at a density of 2×10^6 cells/well, and incubated with various concentrations of gemcitabine. The gemcitabine-induced apoptosis of the MDSCs was assessed according to the protocol of an FITC Annexin V Apoptosis kit (BD Biosciences)."}, "[2]": {"test": "In vitro drug release behavior of soft bio-integrated device", "type": "physicochemical", "conditions": "within one week, PBS (pH 7.4), 37° C., FIG. 31A", "experimental": "A scaffold in which gemcitabine, rhodamine-attached poly(I:C)/nanogel, and a 4T1 cell lysate were loaded was added to 1 mL of PBS (pH 7.4), and stored at 37° C. and 90 rpm. Every selected time interval, the original culture medium was obtained and exchanged with a fresh medium. An amount of gemcitabine released from the scaffold was measured using absorbance (275 nm, UV-1800; Shimadzu, Kyoto, Japan), the rhodamine-attached poly(I:C) was measured according to the protocol of the 5'[…] Nucleic Acid Labeling System (Vector Laboratories), and the 4T1 cell lysate was measured using the BCA assay method (Pierce Biotechnology). Specifically, a fluorescence spectrometer (PerkinElmer) was used to detect and analyze fluorescence at 552 nm (excitation) and 575 nm (emission) from the poly(I:C)/nanogel attached to rhodamine released from the scaffold."}, "4T1 tumor": {"test_system": "4T1 tumor", "test": "In vivo anticancer effect after tumor resection and implantation of soft bio-integrated device", "parameters": "species or system BALB/c mice", "conditions": "day 7 and day 14, FIG. 38A", "experimental": "When 1×10^6 4T1 cells were injected and the size of a growing tumor became 300 mm^3 on day 14 after injection, the tumor was partially resected. A mouse was anesthetized using 2,2,2-tribromoethanol. The surgical site was sterilized with 70% ethanol, and 90% of the tumor was resected so that 10% of the tumor remained. A scaffold was implanted near the remaining part of the tumor.\nOn day 7 and day 14 after tumor removal and implantation of a soft bio-integrated device, a mouse was sacrificed, and a tumor, the spleen and a lymph node of the sacrificed mouse were isolated to measure weights thereof.\nThe tumor and lymph node were cut into small pieces, dispersed in DMEM containing collagenase D, stored for 1 hour at 37° C. and 90 rpm, and then filtered through a 70-μm strainer. The spleen was physically disrupted, and then RBCs were removed using an RBC lysis buffer. The tumor and spleen dispersed as single cells by the above-described method were analyzed using APC-anti-CD11b and PE-anti-Gr1 antibodies to confirm myeloid-derived-suppressor cells and using APC-anti-CD3, PE-anti-CD4 and FITC-CD8 antibodies to confirm T cells. All antibodies were purchased from BD Pharmingen.\nMoreover, to confirm tumor metastasis, on day 14 after the tumor removal, the mouse was sacrificed to confirm metastasis. […]"}, "[3]": {"test_system": "4T1 breast cancer cell line", "test": "Gemcitabine-induced apoptosis of 4T1 breast cancer cells (FITC Annexin V)", "type": "cell-based", "conditions": "change in gemcitabine concentration, FIG. 31C", "experimental": "as §1, with “The 4T1 cells were cultured with 1 μg/mL gemcitabine in a 6-well plate at a density of 2×10^6 cells/well.” left out"}}}
{"smiles": "Nc1ccn([C@@H]2O[C@H](CO)[C@@H](O)C2(F)F)c(=O)n1", "note": "[gemcitabine]", "values": [{"measurement": "cell maturity of dendritic cells", "setting": "BMDCs", "result": "increased"}, {"measurement": "dead cell percentage of MDSCs", "setting": "[1]", "result": "increased as the gemcitabine concentration increased"}, {"measurement": "accumulation amount of gemcitabine released from the scaffold", "setting": "[2]", "result": "approximately 90%"}, {"measurement": "MDSC proportion in the tumor and the spleen", "setting": "4T1 tumor", "result": "reduced"}, {"measurement": "dead cell percentage in breast cancer cell line (4T1)", "setting": "[3]", "result": "increased as the gemcitabine concentration increased"}]}
